Series [1] relates to Staphylococcus aureus. The experiment in a line: Antimicrobial activity against Staphylococcus aureus ATCC 25923 assessed as reduction in bacterial growth by broth dilution method. The series is classed as functional. (Dilution methods test growth across graded concentrations, often in twofold steps.)
Series [2] deals with Staphylococcus aureus. The experiment in a line: Antimicrobial activity against multi-drug resistant Staphylococcus aureus assessed as reduction in bacterial growth by broth dilution method. The format is functional.
Series [3] has as its system Staphylococcus epidermidis. The experiment in a line: Antimicrobial activity against multi-drug resistant Staphylococcus epidermidis assessed as reduction in bacterial growth by broth dilution method. The format is functional.
In the next series the test system is Enterococcus faecalis. The experiment in a line: Antimicrobial activity against multi-drug resistant Enterococcus faecalis assessed as reduction in bacterial growth by broth dilution method. The series is classed as functional.
The test system of series [4] is Escherichia coli. The experiment in a line: Antimicrobial activity against Escherichia coli ATCC 25922 assessed as reduction in bacterial growth by broth dilution method. The series is classed as functional.
Series [5] relates to Escherichia coli. The experiment in a line: Antimicrobial activity against multi-drug resistant Escherichia coli assessed as reduction in bacterial growth by broth dilution method. The series is classed as functional.
The next series relates to Klebsiella pneumoniae. The experiment in a line: Antimicrobial activity against multi-drug resistant Klebsiella pneumoniae assessed as reduction in bacterial growth by broth dilution method. The format is functional.
For another series, the system named is Acinetobacter baumannii. The experiment in a line: Antimicrobial activity against multi-drug resistant Acinetobacter baumannii assessed as reduction in bacterial growth by broth dilution method. The format is functional.
A short description of series [6]: Hemolytic activity in human Red blood cell assessed as hemolysis incubated for 1 hrs by microplate reader based analysis. The series is classed as toxicity. The following applies: erythrocyte.
For another series, the system named is BEAS-2B. The experiment in a line: Cytotoxicity against human BEAS-2B cells at 2 to 256 uM measured after 24 hrs by CCK-8 method. The format is toxicity, cell-based. The conditions noted are these: dose 2-256 µM. In general terms: Formazan colour is commonly taken as a measure of viable cells.
The test system of series [7] is HEK-293T. The experiment in a line: Cytotoxicity against HEK293T cells at 2 to 256 uM measured after 24 hrs by CCK-8 method. The format is toxicity, cell-based. The following applies: human, dose 2-256 µM.
For series [8], the system named is L02. The experiment in a line: Cytotoxicity against human LO2 cells at 2 to 256 uM measured after 24 hrs by CCK-8 method. The format is toxicity, cell-based. The following applies: l02, 24 h, dose 2-256 µM.
For series [9], the system named is Staphylococcus aureus. The experiment in a line: Antimicrobial activity against multi-drug resistant Staphylococcus aureus assessed as fold increase in MIC in presence of NaCl. The series is classed as functional.
The test system of series [10] is Staphylococcus aureus. The experiment in a line: Antimicrobial activity against multi-drug resistant Staphylococcus aureus assessed as fold increase in MIC in presence of MgCl2. The series is classed as functional.
For series [11], the system named is Escherichia coli. The experiment in a line: Antimicrobial activity against multi-drug resistant Escherichia coli assessed as fold increase in MIC in presence of NaCl. The series is classed as functional.
The subject of series [12] is Escherichia coli. The experiment in a line: Antimicrobial activity against multi-drug resistant Escherichia coli assessed as fold increase in MIC in presence of MgCl2. The series is classed as functional.
In series [13] the test system is Staphylococcus aureus. The experiment in a line: Antimicrobial activity against multi-drug resistant Staphylococcus aureus assessed as fold increase in MIC measured after 6 hrs in 25% plasma. The series is classed as functional.
The test system of series [14] is Escherichia coli. The experiment in a line: Antimicrobial activity against multi-drug resistant Escherichia coli assessed as fold increase in MIC measured after 6 hrs in 25% plasma. The format is functional.
A short description of series [15]: Half life of the compound in 25% plasma. The series is classed as ADME, cell-free.
In series [16] the test system is Escherichia coli. The experiment in a line: Antimicrobial activity against multi-drug resistant Escherichia coli assessed as reduction in bacterial growth at 2 times MIC measured after 1 hrs in presence of trypsin by microplate reader based analysis. The format is functional, organism-based.
The subject of series [17] is Escherichia coli. The experiment in a line: Antimicrobial activity against multi-drug resistant Escherichia coli assessed as reduction in bacterial growth at 2 times MIC measured after 1 hrs in presence of chymotrypsin by microplate reader based analysis. The format is functional, organism-based.
In series [18] the test system is Staphylococcus aureus. The experiment in a line: Antimicrobial activity against multi-drug resistant Staphylococcus aureus assessed as reduction in bacterial growth at 2 times MIC measured after 1 hrs in presence of trypsin by microplate reader based analysis. The format is functional, organism-based.
The test system of series [19] is Staphylococcus aureus. The experiment in a line: Antimicrobial activity against multi-drug resistant Staphylococcus aureus assessed as reduction in bacterial growth at 2 times MIC measured after 1 hrs in presence of chymotrypsin by microplate reader based analysis. The series is classed as functional, organism-based.
Series [20] concerns Escherichia coli. The experiment in a line: Antibacterial activity against Escherichia coli ATCC 25922 infected in male Kunming mouse model assessed as reduction in bacterial load measured after 11 days. The conditions noted are these: time 11.0 day. The series is classed as functional, organism-based.
Series [21] concerns Escherichia coli. The experiment in a line: Antibacterial activity against multidrug resistant Escherichia coli infected in male Kunming mouse model assessed as recovery of mouse weight measured after 11 days. The following applies: time 11.0 day. The series is classed as functional, organism-based.
Series [22] relates to Escherichia coli. The experiment in a line: Antibacterial activity against multidrug resistant Escherichia coli infected in male Kunming mouse model assessed as reduction in wound size measured after 3 to 5 days by caliper method. The following applies: time 3-5 day. The series is classed as functional, organism-based.
Series [23] has as its system Escherichia coli. The experiment in a line: Antibacterial activity against multidrug resistant Escherichia coli infected in male Kunming mouse model assessed as scabs thickening measured after 7 days by caliper method. The format is functional, organism-based. The conditions noted are these: time 7.0 day.
Series [24] relates to Escherichia coli. The experiment in a line: Antibacterial activity against multidrug resistant Escherichia coli infected in male Kunming mouse model assessed as wound healing measured after 11 days by caliper method. The format is functional, organism-based. The following applies: time 11.0 day.
Series [25] relates to Escherichia coli. The experiment in a line: Antibacterial activity against multidrug resistant Escherichia coli infected in male Kunming mouse model assessed as reduction in epidermal thickening by H and E staining based analysis. The series is classed as functional, organism-based.
Series [26] has as its system Escherichia coli. The experiment in a line: Antibacterial activity against multidrug resistant Escherichia coli infected in male Kunming mouse model assessed as reduction in tissue hemorrhage by H and E staining based analysis. The format is functional, organism-based.
For series [27], the system named is Escherichia coli. The experiment in a line: Antibacterial activity against multidrug resistant Escherichia coli infected in male Kunming mouse model assessed as inflammatory cell infiltration by H and E staining based analysis. The series is classed as functional, organism-based.
Series [28] deals with Escherichia coli. The experiment in a line: Antibacterial activity against multidrug resistant Escherichia coli infected in male Kunming mouse model assessed as reduction in IL-6 expression by immunochemical analysis. The series is classed as functional, organism-based.
In series [29] the test system is HEK-293T. The experiment in a line: Cytotoxicity against HEK293T cells at 256 uM measured after 24 hrs by CCK-8 method relative to control. The series is classed as toxicity, cell-based. The conditions noted are these: human.
In series [30] the test system is L02. The experiment in a line: Cytotoxicity against human LO2 cells at 256 uM measured after 24 hrs by CCK-8 method relative to control. The format is toxicity, cell-based. The following applies: l02, 24 h.

Values after ≈ are worked out from the molar mass of the structure shown. Active and inactive are the calls of the source. The calls are words filed in the database; no cut-off is given here. Peptide text beside a SMILES is read from it.

Broadly, the MIC is the lowest concentration found to suppress growth. For orientation: half-life means the time in which the quantity being followed falls by half. Read a low half-life as fast loss.

On to `CC(C)C[C@H](NC(=O)[C@H](CCCCN)NC(=O)[C@H](CC(C)C)NC(=O)[C@H](CCCCN)NC(=O)[C@@H]1CCCN1C(=O)[C@H](Cc1c[nH]c2ccccc12)NC(=O)[C@H](Cc1c[nH]c2ccccc12)NC(=O)[C@H](Cc1c[nH]c2ccccc12)NC(=O)[C@@H]1CCCN1C(=O)[C@H](CCCCN)NC(=O)[C@H](CC(C)C)NC(=O)[C@H](CCCCN)NC(=O)[C@H](CC(C)C)NC(=O)[C@@H](N)CCCCN)C(=O)N[C@@H](CCCCN)C(N)=O` (H-KLKLKPWWWPKLKLK-NH2), for which the MIC with Staphylococcus aureus [1] was 8 µM (≈ 15.9 µg/mL); in the series with Staphylococcus aureus [2], 8 µM (≈ 15.9 µg/mL); in series [3] it was 8 µM (≈ 15.9 µg/mL); in the series on Enterococcus faecalis, 8 µM (≈ 15.9 µg/mL); in the series on Escherichia coli [4], 4 µM (≈ 7.97 µg/mL); in the series on Escherichia coli [5] it was 4 µM (≈ 7.97 µg/mL). In addition, the values for the MIC in the series on Klebsiella pneumoniae and with Acinetobacter baumannii were 4 µM (≈ 7.97 µg/mL) and 8 µM (≈ 15.9 µg/mL), respectively. Besides, the HC10 in [6] is above 256 µM. Moreover, the Activity result with BEAS-2B, in the series on HEK-293T [7] and in the series with L02 [8] was “Toxic” throughout. The “fold change (FC)” value in the series on Staphylococcus aureus [9], with Staphylococcus aureus [10], in the series on Escherichia coli [11], with Escherichia coli [12], in the series with Staphylococcus aureus [13] and in the series on Escherichia coli [14] was 2 in each case. Further, in series [15], the half-life is 35.4 h. Also, the result in the series with Escherichia coli [16], with Escherichia coli [17], in the series with Staphylococcus aureus [18] and with Staphylococcus aureus [19] was inactive.
For the compound `C[C@H]1COc2c(N3CCN(C)CC3)c(F)cc3c(=O)c(C(=O)O)cn1c23` [LEVOFLOXACIN ANHYDROUS], the MIC was 0.25 µM (≈ 0.0903 µg/mL) in the series on Staphylococcus aureus [1]; 0.25 µM (≈ 0.0903 µg/mL) with Staphylococcus aureus [2]; 8 µM (≈ 2.89 µg/mL) in series [3]; 32 µM (≈ 11.6 µg/mL) in the series on Enterococcus faecalis; 2 µM (≈ 0.723 µg/mL) with Escherichia coli [4]; 64 µM (≈ 23.1 µg/mL) in the series on Escherichia coli [5]. In addition, the MIC in the series with Klebsiella pneumoniae is 64 µM (≈ 23.1 µg/mL); in the series on Acinetobacter baumannii it was above 256 µM. Moreover, the outcome in the series on Escherichia coli [20], in the series with Escherichia coli [21], with Escherichia coli [22] and in the series with Escherichia coli [23] was Active. Moreover, the result with Escherichia coli [24], in the series on Escherichia coli [25], in the series with Escherichia coli [26], in the series with Escherichia coli [27] and with Escherichia coli [28] was inactive.
Take `CN[C@H](CC(C)C)C(=O)N[C@H]1C(=O)N[C@@H](CC(N)=O)C(=O)N[C@H]2C(=O)N[C@H]3C(=O)N[C@H](C(=O)N[C@H](C(=O)O)c4cc(O)cc(O)c4-c4cc3ccc4O)[C@H](O)c3ccc(c(Cl)c3)Oc3cc2cc(c3O[C@@H]2O[C@H](CO)[C@@H](O)[C@H](O)[C@H]2O[C@H]2C[C@](C)(N)[C@H](O)[C@H](C)O2)Oc2ccc(cc2Cl)[C@H]1O` [VANCOMYCIN]: the MIC in the series with Staphylococcus aureus [1] is 1 µM (≈ 1.45 µg/mL); in the series on Staphylococcus aureus [2], 1 µM (≈ 1.45 µg/mL); in series [3], 2 µM (≈ 2.9 µg/mL); in the series with Enterococcus faecalis it was above 256 µM; with Escherichia coli [4] it was 256 µM (≈ 371 µg/mL); with Escherichia coli [5], above 256 µM. Moreover, the MIC with Klebsiella pneumoniae and in the series on Acinetobacter baumannii was above 256 µM each time. Also, in series [6], the HC10 was above 256 µM. For the same compound, the Activity with HEK-293T [29] and in the series on L02 [30] was 75% throughout.

Source of the values: ChEMBL document CHEMBL6134890, “Terminally Symmetric β-Turn Peptides for Multidrug-Resistant Bacterial Infections” (J Med Chem, 2025).
